Assay results: patent US5130323A, “Pyrrolidine derivatives” (Fujisawa Pharmaceutical Co., Ltd., priority 1988, dated 1992)

Experiments:
[1] = system: human platelet aggregation induced by U46619; experiment: Inhibition of human platelet aggregation induced by U46619; assay type: cell-based; conditions: human platelet rich plasma, U46619 final 1.0 μM, 37° C.; read-out: IC50 (Inhibition concentration of platelet aggregation by 50%)
Method: In the following test, the used 9,11-methanoepoxy PGH2 (U46619) is characterized pharmacologically as TXA2 mimetic agent and widely used for evaluating TXA2 antagonism of test compounds (for example, vide The Journal of Pharmacology and Experimental Therapeutics Vol. 234, pp 435-441).
Human blood was obtained from healthy male volunteers and mixed with 3.8% (w/v) sodium citrate in a ratio of 9:1. Platelet rich plasma (PRP) was prepared from the citrated blood by centrifugation at 150×g for 15 min. Platelet aggregation in PRP was studied photometrically using an aggregometer (NKK HAEMATRACER 1 . To the 225 μl of PRP, 25 μl of test compound solution was added, and then stirred at 1000 rpm for 2 min at 37° C. To the solution, 5 μl of U46619 (final 1.0 μM) was added as an aggregating inducer. IC50 (Inhibition concentration of platelet aggregation by 50% were determined graphically.

TXA2 synthetase = target: T1, TXA2 synthetase (Homo sapiens, UniProt P24557); experiment: Inhibition of TXA2 synthetase; assay type: biochemical; conditions: aspirin treated human platelet microsome, PGH2 as substrate, 25° C., TXB2 measured by radioimmunoassay; read-out: IC50 (Inhibition concentration of TXB2 generation by 50%)
T1 construct: human platelet microsome; purchased Ran Biochem, Israel; host or cells: human platelet microsomes, aspirin treated (APM)
T1 sequence (P24557 1-533): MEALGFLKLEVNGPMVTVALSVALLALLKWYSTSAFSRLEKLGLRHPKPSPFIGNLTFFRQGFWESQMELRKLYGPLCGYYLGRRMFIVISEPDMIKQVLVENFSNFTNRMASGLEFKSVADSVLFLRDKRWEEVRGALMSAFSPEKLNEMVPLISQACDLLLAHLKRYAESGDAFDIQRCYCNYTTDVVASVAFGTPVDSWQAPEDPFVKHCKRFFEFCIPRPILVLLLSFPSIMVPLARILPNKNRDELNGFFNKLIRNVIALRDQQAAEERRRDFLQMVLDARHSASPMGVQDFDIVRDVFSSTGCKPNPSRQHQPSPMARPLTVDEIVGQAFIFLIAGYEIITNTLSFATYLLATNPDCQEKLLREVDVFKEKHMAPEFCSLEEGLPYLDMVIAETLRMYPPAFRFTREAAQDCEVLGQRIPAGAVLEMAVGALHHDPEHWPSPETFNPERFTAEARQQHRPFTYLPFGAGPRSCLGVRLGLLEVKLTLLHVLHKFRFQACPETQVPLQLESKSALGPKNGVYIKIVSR
Method: Aspirin treated human platelet microsome APM, Ran Biochem, Israel) was used as a source of TXA2 synthetase. APM was suspended in 50 mM Tris/100 mM NaCl buffer (pH 7.5). 10 μl of test compound solution was added to 90 μl of APM suspension and incubated at 25° C. for 3 min. And then, 2 μl of PGH2 (10 μg/ml in aceton, Ran Biochem.) was added. After 3-min incubation period, the reaction was terminated by adding 10 μl of FeCl2 solution (25 mM in H2 O), and set aside at room temperature for 15 min and then on ice. The reaction mixture was centrifuged at 10000 rpm for 5 min at 4° C. TXB2 in the supernatant was measured by radioimmunoassay. IC50 (Inhibition concentration of TXB2 generation by 50%) were graphically determined.

IC50 [1]: 270 nM | IC50 (TXA2 synthetase): 46 nM
Compound: O=C(O)CCC/C=C\[C@@H]1C[C@@H](NS(=O)(=O)c2ccc(Cl)cc2)CN1Cc1cccnc1 [test compound (1), (2S,4R)-2-[(Z)-5-Carboxy-1-pentenyl]-4-(4-chlorophenylsulfonylamino)-1-(3-pyridylmethyl)pyrrolidine]
